This note sets out measurements from patent US6713265B1 (Synaptic Pharmaceutical Corporation, priority 1999, dated 2004).

Test [1] relates to NPY-induced feeding behavior. Briefly: NPY-induced food intake in satiated rats. The format is in vivo, rat. The note with it: for Food intake, NPY + compound: compound 10 mg/kg i.p. then 300 pmole NPY i.c.v., 4 hours. The procedure: For these determinations food intake may be measured in normal satiated rats after intracerebroventricular application (i.c.v.) of NPY in the presence or absence of the test compound. Male Sprague Dawley rats (Ciba-Geigy AG, Sisseln, Switzerland) weighing between 180 g and 220 g are used for all experiments. The rats are individually housed in stainless steel cages and maintained on an 11:13 h light-dark cycle (lights off at 18:00 h) at a controlled temperature of 21-23° C. at all times. Water and food (NAFAG lab chow pellets NAFAG, Gossau, Switzerland) are available ad libidum.
Rats under pentobarbital anesthesia are stereotaxically implanted with a stainless steel guide cannula targeted at the right lateral ventricle. Stereotaxic coordinates, with the incisor bar set −2.0 mm below interaural line, are: −0.8 mm anterior and +1.3 mm lateral to bregma. The guide cannula is placed on the dura. Injection cannulas extend the guide cannulas −3.8 mm ventrally to the skull surface. Animals are allowed at least 4 days of recovery postoperatively before being used in the experiments. Cannula placement is checked postoperatively by testing all rats for their drinking response to a 50. ng intracerebroventricular (i.c.v.) injection of angiotensin II. Only rats which drink at least 2.5 ml of water within 30 min. after angiotensin II injection are used in the feeding studies.
All injections are made in the morning 2 hours after light onset. Peptides are injected in artificial cerebrospinal fluid (ACSF) in a volume of 5 μl. ACSF contains: NaCl 124 mM, KCl 3.75 mM, CaCl2 2.5 mM, MgSO4 2.0 mM, KH2PO4 0.22 mM, NaHCO3 26 mM and glucose 10 mM. Porcine-NPY (p-NPY) are dissolved in artificial cerebrospinal fluid (ACS). For i.c.v. injection the test compounds are preferably dissolved in DMSO/water (10%, v/v). The vehicle used for intraperitoneal (i.p.), subcutaneous (s.c.) or oral (p.o.) delivery of compounds is preferably water, physiological saline or DMSO/water (10% v/v), or cremophor/water (20% v/v), respectively.
Animals which are treated with both test compounds and porcine-NPY are treated first with the test compound.
Food intake may be measured by placing preweighed pellets into the cages at the time of NPY injection. Pellets are then removed from the cage subsequently at each selected time point and replaced with a new set of preweighed pellets. The food intake of animals treated with test compound may be calculated as a percentage of the food intake of control animals i.e., animals treated with vehicle. Alternatively, food intake for each group of animals subjected to a particular experimental condition may be expressed as the mean±S.E.M. Statistical analysis is performed by analysis of variance using the Student-Newman-Keuls test.
Food intake is reported as the mean±S.E.M. intake for a group of animals.

The test system of a further test is food intake. Put plainly: Food intake in food-deprived rats. The format is in vivo, rat. The note with it: 30 mg/kg i.p., after 24h food deprivation.
Another test addresses T1, α2c (Homo sapiens, UniProt P18825).
T1 sequence (P18825 1-462): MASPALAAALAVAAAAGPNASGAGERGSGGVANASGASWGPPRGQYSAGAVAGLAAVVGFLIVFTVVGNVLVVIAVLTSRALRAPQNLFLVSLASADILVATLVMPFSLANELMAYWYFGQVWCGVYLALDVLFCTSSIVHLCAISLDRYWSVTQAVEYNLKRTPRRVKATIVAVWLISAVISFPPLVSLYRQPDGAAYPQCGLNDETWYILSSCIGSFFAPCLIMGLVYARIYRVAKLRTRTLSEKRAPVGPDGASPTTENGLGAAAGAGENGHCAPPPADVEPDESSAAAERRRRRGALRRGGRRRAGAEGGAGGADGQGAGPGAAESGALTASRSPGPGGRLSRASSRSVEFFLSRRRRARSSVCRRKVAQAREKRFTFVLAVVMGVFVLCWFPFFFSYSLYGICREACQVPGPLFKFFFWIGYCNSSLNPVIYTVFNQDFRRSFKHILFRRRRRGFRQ
Briefly: Binding at cloned human α2c adrenergic receptor.

The target of another test is T2, human Y4 receptor (Homo sapiens, UniProt P50391).
T2 construct: expressed in transfected cells; host or cells: COS-7 (transient)
Briefly: ^125I-PYY binding to membranes, cloned human Y4 receptor. The note with it: read-out: Binding Affinity Ki vs. ^125I-PYY, Human Receptor Y4; Table 14; stably transfected LM(tk-) cells.

A further test has as its target T3, human Y2 receptor (Homo sapiens, UniProt P49146).
T3 construct: expressed in transfected cells; host or cells: COS-7 (transient)
T3 sequence (P49146 1-381): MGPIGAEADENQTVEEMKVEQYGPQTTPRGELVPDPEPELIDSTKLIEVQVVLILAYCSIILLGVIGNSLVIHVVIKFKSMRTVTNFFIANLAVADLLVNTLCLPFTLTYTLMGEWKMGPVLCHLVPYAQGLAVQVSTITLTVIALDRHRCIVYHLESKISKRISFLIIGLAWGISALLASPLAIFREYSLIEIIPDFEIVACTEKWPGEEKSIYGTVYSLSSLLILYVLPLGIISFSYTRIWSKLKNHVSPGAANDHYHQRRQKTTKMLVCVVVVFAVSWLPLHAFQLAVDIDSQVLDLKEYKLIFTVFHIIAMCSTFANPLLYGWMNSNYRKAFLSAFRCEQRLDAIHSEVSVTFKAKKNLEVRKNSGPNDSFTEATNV
Briefly: ^125I-PYY binding to membranes, cloned human Y2 receptor. The note with it: read-out: Binding Affinity Ki vs. ^125I-PYY, Human Receptor Y2; Table 14; stably transfected 293 cells (compound 1 also COS-7).

The target in test [2] is T4, human Y5 receptor (Homo sapiens, UniProt Q15761).
T4 sequence (Q15761 1-445): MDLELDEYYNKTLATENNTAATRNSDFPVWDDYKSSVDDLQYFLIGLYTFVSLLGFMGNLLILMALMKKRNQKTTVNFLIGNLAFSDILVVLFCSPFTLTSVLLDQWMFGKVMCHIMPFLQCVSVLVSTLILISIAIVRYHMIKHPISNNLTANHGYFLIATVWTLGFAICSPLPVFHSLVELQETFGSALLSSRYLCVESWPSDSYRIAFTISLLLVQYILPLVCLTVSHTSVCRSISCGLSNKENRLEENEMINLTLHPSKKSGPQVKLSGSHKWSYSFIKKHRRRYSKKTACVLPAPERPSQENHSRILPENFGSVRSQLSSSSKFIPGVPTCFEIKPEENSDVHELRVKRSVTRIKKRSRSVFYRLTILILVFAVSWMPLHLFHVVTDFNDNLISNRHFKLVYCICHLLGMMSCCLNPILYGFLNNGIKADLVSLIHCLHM
Briefly: Radioligand binding to membranes of cells expressing cloned human Y5 receptor. The settings on record: read-out: Binding Affinity Ki vs. ^125I-PYY, Human Receptor Y5; Table 14; stably transfected LM(tk-) cells. Further details: Ki Values, Human Y5; apparent Kd; pKd; The isolated clone (CG-19) turned out to contain a full length cDNA; The longest open reading frame encodes a 455 amino acid protein.

The target in the next test is T5, human Y1 receptor (Homo sapiens, UniProt P25929).
T5 construct: expressed in transfected cells; host or cells: COS-7 (transient)
T5 sequence (P25929 1-384): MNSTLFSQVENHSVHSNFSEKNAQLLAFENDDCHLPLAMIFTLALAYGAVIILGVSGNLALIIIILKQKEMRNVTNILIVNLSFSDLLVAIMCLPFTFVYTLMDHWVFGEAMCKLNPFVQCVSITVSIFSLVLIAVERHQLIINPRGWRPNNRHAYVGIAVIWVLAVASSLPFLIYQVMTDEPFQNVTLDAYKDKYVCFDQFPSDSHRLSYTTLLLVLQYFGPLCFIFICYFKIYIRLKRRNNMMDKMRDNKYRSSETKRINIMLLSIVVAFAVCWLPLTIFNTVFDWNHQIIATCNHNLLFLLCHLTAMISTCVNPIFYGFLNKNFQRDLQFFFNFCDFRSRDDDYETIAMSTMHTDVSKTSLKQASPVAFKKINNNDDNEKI
Put plainly: ^125I-PYY binding to membranes, cloned human Y1 receptor. The note with it: read-out: Binding Affinity Ki vs. ^125I-PYY, Human Receptor Y1; Table 14; stably transfected 293 cells (compound 1 also COS-7).

The target in test [3] is T4, human Y5 receptor. Briefly: Radioimmunoassay of cAMP, cells stably expressing human Y5 receptor. The format is cell-based. Further details: Ki Values, Human Y5; apparent Kd; pKd; The isolated clone (CG-19) turned out to contain a full length cDNA; The longest open reading frame encodes a 455 amino acid protein. The note with it: block of NPY-induced inhibition of cAMP accumulation, forskolin-stimulated LM(tk-) cells, human Y5. (In general: cAMP levels reflect the balance of adenylyl cyclase and phosphodiesterase activity.)
Protocol: LM(tk-) cells stably transfected with the human Y5 receptor were routinely converted from an adherent monolayer to a viable suspension. […] The cell suspension was maintained in a shaking incubator at 37° C., 5% CO2 for 24 hours. […] Alternatively, cells may be returned to adherent cell culture in complete DMEM by distribution into 96-well microtiter plates coated with poly-D-lysine (0.01 mg/ml) followed by incubation at 37° C., 5% CO2 for 24 hours.
The maximum inhibition of cAMP accumulation (Emax) and the concentration producing a half-maximal effect (EC50) were determined by nonlinear regression analysis according to a 4 parameter logistic equation.
The ability of the compounds to antagonize the Y-type receptors is reported as the Kb. […] The results shown are representative of at least three independent experiments.

Several values for one entry are separate records, joined by “and”; a condition that tells them apart may be missing. Equal entries are not always repeated. Structures can show the parent of a compound that is named as a salt.

T2 sequence (P50391 whole entry): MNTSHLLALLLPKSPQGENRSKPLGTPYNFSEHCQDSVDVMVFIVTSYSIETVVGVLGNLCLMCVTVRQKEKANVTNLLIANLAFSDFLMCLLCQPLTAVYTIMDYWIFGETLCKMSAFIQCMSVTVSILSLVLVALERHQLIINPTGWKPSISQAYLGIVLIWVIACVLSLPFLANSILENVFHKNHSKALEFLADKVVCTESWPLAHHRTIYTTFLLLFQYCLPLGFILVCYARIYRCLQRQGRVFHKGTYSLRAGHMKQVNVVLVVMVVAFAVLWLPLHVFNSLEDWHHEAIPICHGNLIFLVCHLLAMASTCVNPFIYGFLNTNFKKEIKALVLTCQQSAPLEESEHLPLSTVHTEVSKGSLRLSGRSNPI

For the compound `c1ccc(Nc2nc(Nc3ccccc3)c3ccccc3n2)cc1` [Compound 1, 2,4-Diphenylamino-guinazoline hydrochloride], in test [1] (mean ± S.E.M.), the “Food intake, NPY + compound” value is given as 4.6 ± 0.6 g.
Consider `Nc1nc(NCCCCCCNS(=O)(=O)c2cccc3ccccc23)nc2ccccc12` [Compound 2, Naphthalene-1-sulfonic acid [6-(4-amino-quinazolin-2-ylamino)-hexyl]-amide], for which the “Two-hour food intake of food-deprived rats, percentage of intake compared to control rats, Mean” value with food intake amounted to 42%.
Consider `Cl.Nc1nc(NC[C@H]2CC[C@H](CNS(=O)(=O)c3cccc4ccccc34)CC2)nc2ccccc12` [Compound 5, trans-Naphthalene-1-sulfonic acid {4-[(4-amino-quinazolin-2-ylamino)-methyl]-cyclohexylmethyl}-amide hydrochloride], for which the “Food intake, NPY + compound” value in test [1] (mean ± S.E.M.) was determined as 4.1 ± 0.4 g.
On to `Cl.Cl.c1ccc(Nc2nc(Nc3ccc(N4CCCCC4)cc3)nc3ccccc23)cc1` [Compound 6, 2-[4-(Piperidin-1-yl)-phenylamino]-4-Phenylamino-quinazoline dihydrochloride], for which, in the test on food intake, the “Two-hour food intake of food-deprived rats, percentage of intake compared to control rats, Mean” value came out at 38%. This compound had a Ki at α2c of 447 nM.
As to `CC(=O)O[C@H]1CC[C@H](Nc2nc(Nc3ccccc3)c3ccccc3n2)CC1.Cl` [Compound 7, trans-2-(4-Acetoxy-cyclohexylamino)-4-Phenylamino-quinazoline hydrochloride], the “Two-hour food intake of food-deprived rats, percentage of intake compared to control rats, Mean” value in the test on food intake was 47%.
For `COc1ccc(Nc2nc(Nc3ccccc3)c3cccc(OC)c3n2)cc1.Cl` [Compound 9, 8-Methoxy-2-(4-methoxy-phenylamino)-4-phenylamino-quinazoline hydrochloride], the “Two-hour food intake of food-deprived rats, percentage of intake compared to control rats, Mean” value in the test on food intake worked out at 40%.
Take `CNS(=O)(=O)Cc1ccc(Nc2nc(Nc3ccccc3)c3cc(OC)ccc3n2)cc1` [Compound 10, N-Methyl-[4-(6-methoxy-4-phenylamino-quinazolin-2-ylamino)-phenyl1-methanesulfonamide hydrochloride]: in the test with food intake, the “Two-hour food intake of food-deprived rats, percentage of intake compared to control rats, Mean” value is recorded as 74%.
Consider `CNS(=O)(=O)Cc1ccc(Nc2nc(Nc3ccccc3)c3ccccc3n2)cc1.Cl` [Compound 11, N-Methyl-[4-(4-Phenylamino-quinazolin-2-ylamino)-phenyl]-methanesulfonamide hydrochloride], for which the “Two-hour food intake of food-deprived rats, percentage of intake compared to control rats, Mean” value in the test with food intake is 15%.
As to `Cl.O=S(=O)(NC[C@H]1CC[C@H](CNCc2ccc3ccccc3c2)CC1)c1ccccc1C(F)(F)F` [Compound 21], the Ki at human Y4 receptor is 18.5 µM; at human Y2 receptor, 1610 nM; on human Y5 receptor [2], 9.8 nM; on human Y1 receptor it was 13 µM. In addition, in the test on food intake, the “Two-hour food intake of food-deprived rats, percentage of intake compared to control rats, Mean” value was determined as 80%.
In the case of `Cl.O=S(=O)(NC[C@H]1CC[C@H](CNCc2cccc3ccccc23)CC1)c1ccccc1C(F)(F)F` [Compound 23], the Ki on human Y4 receptor came out at 21.5 µM; at human Y2 receptor, 617 nM; at human Y5 receptor [2], 26 nM; at human Y1 receptor, 14.5 µM. At human Y5 receptor [3], the Kb stood at 38 nM. In the test with food intake, the “Two-hour food intake of food-deprived rats, percentage of intake compared to control rats, Mean” value turned out to be 58%.
On to `Cl.Cl.O=[N+]([O-])c1ccccc1S(=O)(=O)NC[C@H]1CC[C@H](CNCc2ccc3ccccc3n2)CC1` [Compound 26], for which the Ki amounted to 19.3 µM at human Y4 receptor, 58200 nM at human Y2 receptor and 23.7 µM on human Y1 receptor. Further, the “Two-hour food intake of food-deprived rats, percentage of intake compared to control rats, Mean” value in the test on food intake amounted to 73%.
On to “NPY: peptide neurotransmitter neuropeptide Y, 36 amino acids; feeding studies used 300 pmole of porcine NPY i.c.v.”, for which the “Food intake, NPY” value in test [1] (300 pmole NPY i.c.v. alone, cumulative intake 4 hours after NPY, mean ± S.E.M.) was 7.4 ± 0.5 g and 6.8 ± 1.0 g and 5.8 ± 0.5 g and 4.9 ± 0.4 g. Moreover, in test [1] (300 pmole i.c.v., p<0.05 Student-Newman-Keuls), the “food intake of NPY-stimulated animals compared to vehicles” value was “significantly induce food intake”.
